Measurements reported in PubChem BioAssay (NCI).
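Growth conditions: 96-well plates. Treatment: test compound, 48 hours, 5 concentrations. Analysis: linear interpolation between bracketing concentrations; unreached endpoints set to highest concentration. GI50 marks 50% less growth. TGI: total growth inhibition.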

Key:
Test in all cases: NCI anticancer screen, dose series, 48 h
KM12 colon = tested on: KM12 colon
786-0 renal = tested on: 786-0 renal
K-562 leukemia = tested on: K-562 leukemia
SN12C renal = tested on: SN12C renal
SK-MEL-5 melanoma = tested on: SK-MEL-5 melanoma
UACC-62 melanoma = tested on: UACC-62 melanoma
NCI-H226 lung = tested on: NCI-H226 lung
HOP-92 NSCLC = tested on: HOP-92 NSCLC
ACHN renal = tested on: ACHN renal
SK-MEL-28 melanoma = tested on: SK-MEL-28 melanoma

## COc1cccc(/C=C/C(=O)c2cc3c(N)c(C(=O)Nc4cccc5ccccc45)sc3nc2C)c1
KM12 colon
  GI50: 1.4 µM
  TGI: 4.77 µM
786-0 renal
  GI50: 0.851 µM
  TGI: 1.85 µM
K-562 leukemia
  GI50: 0.562 µM
  TGI: > 50 µM
SN12C renal
  GI50: 1.14 µM
  TGI: 2.98 µM
SK-MEL-5 melanoma
  GI50: 1.21 µM
  TGI: 3.09 µM
UACC-62 melanoma
  GI50: 1.09 µM
  TGI: 4.74 µM
NCI-H226 lung
  GI50: 1.2 µM
  TGI: 3.27 µM
HOP-92 NSCLC
  GI50: 0.953 µM
  TGI: 4.9 µM
ACHN renal
  GI50: 1.23 µM
  TGI: 4.36 µM

## COc1cc([N+](=O)[O-])c2ncccc2c1[N+](=O)[O-]
KM12 colon
  GI50: 2.98 µM
  TGI: 10.5 µM
786-0 renal
  GI50: 10.7 µM
  TGI: 23.3 µM
K-562 leukemia
  GI50: 3.97 µM
  TGI: > 100 µM
SN12C renal
  GI50: 12.5 µM
  TGI: 25.3 µM
SK-MEL-5 melanoma
  GI50: 12.6 µM
  TGI: 25.3 µM
SK-MEL-28 melanoma
  GI50: 13.2 µM
  TGI: 27.1 µM
UACC-62 melanoma
  GI50: 12 µM
  TGI: 25.1 µM
NCI-H226 lung
  GI50: 15.3 µM
  TGI: 31.5 µM
ACHN renal
  GI50: 4.75 µM
  TGI: 16.5 µM

## CCCCCCCCCCCCCc1nn[nH]n1
KM12 colon
  TGI: 32.9 µM
786-0 renal
  TGI: 31.5 µM
SN12C renal
  TGI: 35.9 µM
SK-MEL-5 melanoma
  TGI: 32.5 µM
SK-MEL-28 melanoma
  TGI: 31.7 µM
UACC-62 melanoma
  TGI: 34.6 µM
NCI-H226 lung
  TGI: 45.5 µM
HOP-92 NSCLC
  TGI: 29.3 µM
ACHN renal
  TGI: 42.2 µM

## S=c1nc(-c2ccnc(-c3nc(=S)[nH][nH]3)c2)[nH][nH]1
KM12 colon
  TGI: > 100 µM
786-0 renal
  TGI: > 100 µM
K-562 leukemia
  TGI: > 100 µM
SN12C renal
  TGI: > 100 µM
SK-MEL-5 melanoma
  TGI: > 100 µM
SK-MEL-28 melanoma
  TGI: > 100 µM
UACC-62 melanoma
  TGI: > 100 µM
NCI-H226 lung
  TGI: > 100 µM
ACHN renal
  TGI: > 100 µM

## CCOc1cc(-c2ccc[nH]2)[nH]c1/C=C1\N=C(C)C(C(=O)OC)=C1C
KM12 colon
  GI50: 0.0251 µM
  TGI: 1.35 µM
786-0 renal
  GI50: 0.0329 µM
  TGI: 0.259 µM
SN12C renal
  GI50: 0.0444 µM
  TGI: 1.72 µM
SK-MEL-5 melanoma
  GI50: < 0.0133 µM
  TGI: 0.0293 µM
SK-MEL-28 melanoma
  GI50: 0.143 µM
  TGI: 0.9 µM
UACC-62 melanoma
  GI50: 0.024 µM
  TGI: 0.0581 µM
NCI-H226 lung
  GI50: 0.0185 µM
  TGI: 0.044 µM
HOP-92 NSCLC
  GI50: 0.0148 µM
  TGI: 0.049 µM
ACHN renal
  GI50: 0.0344 µM
  TGI: 1.16 µM

## COc1cc(NC(=O)Nc2cnc(Nc3ccc(N4CCOCC4)cc3)nc2Oc2cccc(OC)c2)cc(OC)c1
KM12 colon
  GI50: 2.19 µM
  TGI: 22.5 µM
786-0 renal
  GI50: 0.928 µM
  TGI: 1.88 µM
SN12C renal
  GI50: 1.3 µM
  TGI: 3.71 µM
SK-MEL-5 melanoma
  GI50: 1.13 µM
  TGI: 2.65 µM
SK-MEL-28 melanoma
  GI50: 1.61 µM
  TGI: 6.21 µM
UACC-62 melanoma
  GI50: 1.35 µM
  TGI: 4.04 µM
NCI-H226 lung
  GI50: 1.88 µM
  TGI: 8.48 µM
HOP-92 NSCLC
  GI50: 1.14 µM
  TGI: 3.51 µM
ACHN renal
  GI50: 1.61 µM
  TGI: 6.84 µM

## O=C1C=CC2(C=C1)C[C@H](NC(=O)C(F)(F)F)C(=O)O2
KM12 colon
  TGI: > 100 µM
786-0 renal
  TGI: > 100 µM
K-562 leukemia
  TGI: 65.8 µM
SN12C renal
  TGI: > 100 µM
SK-MEL-5 melanoma
  TGI: > 100 µM
SK-MEL-28 melanoma
  TGI: 38.3 µM
UACC-62 melanoma
  TGI: 37.7 µM
NCI-H226 lung
  TGI: > 100 µM
ACHN renal
  TGI: > 100 µM

## O=C(Cc1csc2nc(-c3ccc(Br)cc3)cn12)N/N=C/c1ccc(O)cc1
KM12 colon
  GI50: 17.6 µM
  TGI: 76.7 µM
786-0 renal
  GI50: 26.1 µM
  TGI: 89 µM
K-562 leukemia
  GI50: 1.83 µM
  TGI: 7.02 µM
SN12C renal
  GI50: 15.4 µM
  TGI: 44.1 µM
SK-MEL-5 melanoma
  GI50: 7.14 µM
  TGI: 22.2 µM
SK-MEL-28 melanoma
  GI50: 60 µM
  TGI: > 100 µM
UACC-62 melanoma
  GI50: 9.11 µM
  TGI: 23.5 µM
HOP-92 NSCLC
  GI50: 18.9 µM
  TGI: 68.9 µM
ACHN renal
  GI50: 14.7 µM
  TGI: 51 µM

## Cc1nc(N)nc2ccccc12
KM12 colon
  TGI: > 100 µM
786-0 renal
  TGI: > 100 µM
K-562 leukemia
  TGI: > 100 µM
SN12C renal
  TGI: > 100 µM
SK-MEL-5 melanoma
  TGI: > 100 µM
SK-MEL-28 melanoma
  TGI: > 100 µM
UACC-62 melanoma
  TGI: > 100 µM
HOP-92 NSCLC
  TGI: > 100 µM
ACHN renal
  TGI: > 100 µM

## COC(=O)CC(C(C(C)=O)C(=O)OCc1ccccc1)N1C(=O)OCC1c1ccccc1 (stereo not drawn)
786-0 renal
  TGI: > 100 µM
K-562 leukemia
  TGI: > 100 µM
SN12C renal
  TGI: > 100 µM
SK-MEL-5 melanoma
  TGI: > 100 µM
SK-MEL-28 melanoma
  TGI: > 100 µM
UACC-62 melanoma
  TGI: > 100 µM
NCI-H226 lung
  TGI: > 100 µM
ACHN renal
  TGI: > 100 µM

## CC1OC(OC2CCC3(C=O)C4CCC5(C)C(C6=CC(=O)OC6)CCC5(O)C4CCC3(O)C2)C(O)C(O)C1O (stereo not drawn)
KM12 colon
  TGI: 0.000298 µM
786-0 renal
  TGI: 3.2e-05 µM
K-562 leukemia
  TGI: 0.000263 µM
SN12C renal
  TGI: 3.74e-05 µM
SK-MEL-28 melanoma
  TGI: 0.000135 µM
UACC-62 melanoma
  TGI: 0.000127 µM
NCI-H226 lung
  TGI: 0.000111 µM
HOP-92 NSCLC
  TGI: 0.000102 µM
ACHN renal
  TGI: 6.36e-05 µM

## COc1ccc(CCN2CCc3c(C)c(C#N)c4nc5ccccc5n4c32)cc1OC
786-0 renal
  TGI: > 100 µM
K-562 leukemia
  TGI: 55.7 µM
SN12C renal
  TGI: > 100 µM
SK-MEL-5 melanoma
  TGI: 52 µM
SK-MEL-28 melanoma
  TGI: > 100 µM
UACC-62 melanoma
  TGI: 95.3 µM
NCI-H226 lung
  TGI: 93.7 µM
HOP-92 NSCLC
  TGI: 90.6 µM
ACHN renal
  TGI: > 100 µM

## O=C(Nc1cccc(NC(=O)c2cc(=O)c3ccccc3o2)n1)c1cc(=O)c2ccccc2o1
KM12 colon
  TGI: > 100 µM
786-0 renal
  TGI: > 100 µM
K-562 leukemia
  TGI: > 100 µM
SK-MEL-5 melanoma
  TGI: > 100 µM
SK-MEL-28 melanoma
  TGI: > 100 µM
UACC-62 melanoma
  TGI: > 100 µM
HOP-92 NSCLC
  TGI: 52.7 µM
ACHN renal
  TGI: > 100 µM

## COc1ccc2nc3ccccc3c(NCCCCN(C)CCCl)c2c1
KM12 colon
  TGI: 0.4 µM
786-0 renal
  TGI: 0.185 µM
K-562 leukemia
  TGI: 0.93 µM
SN12C renal
  TGI: 0.128 µM
SK-MEL-5 melanoma
  TGI: 0.442 µM
SK-MEL-28 melanoma
  TGI: 2.39 µM
UACC-62 melanoma
  TGI: 0.305 µM
NCI-H226 lung
  TGI: 0.575 µM
ACHN renal
  TGI: 0.132 µM

## COc1cc2c(c(OC)c1OC)-c1ccc(SC)c(=O)cc1[C@@H](NC(=O)c1ccc(Cl)cc1)CC2
786-0 renal
  TGI: 15.8 µM
K-562 leukemia
  TGI: > 100 µM
SN12C renal
  TGI: 12.7 µM
SK-MEL-5 melanoma
  TGI: < 0.01 µM
SK-MEL-28 melanoma
  TGI: > 100 µM
UACC-62 melanoma
  TGI: 56.3 µM
NCI-H226 lung
  TGI: < 0.01 µM
ACHN renal
  TGI: > 100 µM

## COC1(OC)c2no[n+]([O-])c2C(OC)(OC)c2c1no[n+]2[O-]
KM12 colon
  TGI: 24.2 µM
786-0 renal
  TGI: 48.9 µM
K-562 leukemia
  TGI: > 100 µM
SN12C renal
  TGI: 54 µM
SK-MEL-5 melanoma
  TGI: 28.6 µM
SK-MEL-28 melanoma
  TGI: 32.1 µM
UACC-62 melanoma
  TGI: 24.3 µM
NCI-H226 lung
  TGI: 64 µM
ACHN renal
  TGI: 68.5 µM

## COc1ccc(C2CCc3cc4c(cc3/C2=N/OC(C)=O)OCO4)cc1OC (stereo not drawn)
KM12 colon
  TGI: 54.8 µM
786-0 renal
  TGI: > 100 µM
K-562 leukemia
  TGI: > 100 µM
SN12C renal
  TGI: > 100 µM
SK-MEL-5 melanoma
  TGI: 23 µM
SK-MEL-28 melanoma
  TGI: 57.4 µM
UACC-62 melanoma
  TGI: 57.7 µM
NCI-H226 lung
  TGI: 43.3 µM
HOP-92 NSCLC
  TGI: 69.6 µM

## CSC1=NCC2(S1)c1ccccc1N(C(=O)OC(C)(C)C)C2N1CCCCC1 (stereo not drawn)
KM12 colon
  GI50: > 100 µM
  TGI: > 100 µM
786-0 renal
  GI50: 16.2 µM
  TGI: > 100 µM
K-562 leukemia
  GI50: 73.8 µM
  TGI: > 100 µM
SN12C renal
  GI50: > 100 µM
  TGI: > 100 µM
SK-MEL-5 melanoma
  GI50: > 100 µM
  TGI: > 100 µM
SK-MEL-28 melanoma
  GI50: > 100 µM
  TGI: > 100 µM
UACC-62 melanoma
  GI50: 76.6 µM
  TGI: > 100 µM
NCI-H226 lung
  GI50: > 100 µM
  TGI: > 100 µM
HOP-92 NSCLC
  GI50: 51.5 µM
  TGI: > 100 µM
